Measurements published in patent EP0758883B1, “FUSOGENIC LIPOSOMES AND METHODS OF MAKING AND USING SAME” (THE LIPOSOME COMPANY, INC., priority 1994, dated 1995).

What was measured:
[1] = Lipid-mixing fusion assay (RET fluorescent probe dilution), EPC/Chol liposomes; settings: plateau after dissipation of the pH gradient with 100 mM ammonium acetate, complete mixing would give 80%
Protocol: Fusion was monitored by the decrease in resonance energy transfer (RET) resulting from fluorescent probe dilution, as described by Struck et al. (1981). […] The external buffer was 20 mM HEPES (150 mM NaCl, pH 7.5). […] Labeled and unlabeled liposomes were mixed in a 1:3 ratio, and diluted to 0.2 mM total lipid. External buffer was exchanged for 300 mM sucrose, 1 mM citrate, pH 4.0, on Sephadex G-25 columns before diluting preparations to 10 mM lipid. For fusion assays, 20 µl of fluorescently labeled liposomes, and 60 µl unlabeled liposomes, were added to 3.92 ml of 20 mM HEPES, 150 mM NaCl, pH 7.5. After 5 min. of incubation at room temperature, a 3 ml aliquot was added to a cuvette, and the fluorescence was monitored over 5 minutes. Excitation and emission wavelengths were 465 and 535 nm, respectively, and an emission 530 nm cutoff filter was used. […] The percent change in fluorescence (% F/ Fmax) was determined by assigning zero fluorescence (F0) to a trace with no ammonium acetate added and Fmax to a trace measured after adding 100 µl of 25 mM Triton X-100, so that: % ( F/ Fmax ) = 100 x ((F-F0 )/(Fmax -F0 )) [formula] […]
(§1) Membrane fusion was monitored by a loss in RET between the fluorescently labeled lipids NBD-PE and Rh-PE. When liposomes containing both of these labels fuse with unlabeled liposomes, the resulting dilution of the fluorescent probes gives Increased fluorescence for NBD-PE.

[2] = Lipid asymmetry (transbilayer distribution) by TNS fluorescence; type: physicochemical; settings: 10 mole % in EPC/Chol (55:45), internal pH 4, external pH 7.5; after four minutes
[3] = TNS fluorescence titration for ionizable lipid pKa in liposomal bilayers; settings: aminolipid incorporated into liposomes; for % Charged at pH 7.5: from TNS fluorescence titrations
[4] = Lipid-mixing fusion assay (RET fluorescent probe dilution), EPC/DOPE/Chol liposomes; settings: for fusogenic capacity (fusion rate): 5 mole % of each aminolipid in EPC/DOPE/Chol (35:20:45) liposomes, Figure 9, in words
Protocol: Fusion was monitored by the decrease in resonance energy transfer (RET) resulting from fluorescent probe dilution, as described by Struck et al. (1981). […] The external buffer was 20 mM HEPES (150 mM NaCl, pH 7.5). […] Labeled and unlabeled liposomes were mixed in a 1:3 ratio, and diluted to 0.2 mM total lipid. External buffer was exchanged for 300 mM sucrose, 1 mM citrate, pH 4.0, on Sephadex G-25 columns before diluting preparations to 10 mM lipid. For fusion assays, 20 µl of fluorescently labeled liposomes, and 60 µl unlabeled liposomes, were added to 3.92 ml of 20 mM HEPES, 150 mM NaCl, pH 7.5. After 5 min. of incubation at room temperature, a 3 ml aliquot was added to a cuvette, and the fluorescence was monitored over 5 minutes. Excitation and emission wavelengths were 465 and 535 nm, respectively, and an emission 530 nm cutoff filter was used. To dissipate the gradient and induce fusion, ammonium acetate was added to a final concentration of 100 mM at 30 seconds. The percent change in fluorescence (% F/ Fmax) was determined by assigning zero fluorescence (F0) to a trace with no ammonium acetate added and Fmax to a trace measured after adding 100 µl of 25 mM Triton X-100, so that: % ( F/ Fmax ) = 100 x ((F-F0 )/(Fmax -F0 )) [formula]
To study the effect of aminolipid structure on the fusion of EPC/Chol/DOPE liposomes (35:20:45) liposomes were prepared with 5 mole % of the indicated aminolipid (AL-1-AL-6), an internal pH 4.0, 300 mM sodium citrate buffer, and an external 20 mM HEPES buffer (150 mM NaCl, pH 7.5). Fusion assays were carried out as described above.
as §1

Row | SMILES | aminolipid moved to the inner monolayer [2] | fraction of neutral species at pH 7.5 [3] | % Charged at pH 7.5 [3] | ΔF/ΔFmax ([1]; 10 mole % AL-1 in EPC/Chol (55:45)) | ΔF/ΔFmax ([1]; 20 mole % AL-1 in EPC/Chol (55:45)) | ΔF/ΔFmax ([4]; 10 mole % AL-1 in EPC/DOPE/Chol (30:25:45), over 5 minutes after dissipation of the pH gradient) | ΔF/ΔFmax ([4]; 10 mole % AL-1 in EPC/DOPE/Chol (35:20:45), after 5 minutes) | ΔF/ΔFmax ([4]; about 5 mole % AL-1 in EPC/DOPE/Chol (35:20:45), over the first 5 minutes after dissipation of the pH gradient) | fusogenic capacity (fusion rate) [4]
1 | CCCCCCCC/C=C\CCCCCCCC(=O)OCC(CN(C)C)OC(=O)CCCCCCC/C=C\CCCCCCCC (racemic) [AL-1, 1-N,N-dimethylamino dioleoyl propane] | virtually all | 11% | 11% | ~3% | ~3% | ~10% | over 5% | greater than 10% | –
2 | CCCCCCCC/C=C\CCCCCCCC(=O)OCC(O)CN(C)C (racemic) [AL-2, ±-1-oleoyl-2-hydroxy-3-N,N-dimethylamino propane] | – | – | 54% | – | – | – | – | – | little Increase in liposome fusion
3 | CCCCCCCC/C=C\CCCCCCCC(=O)OCC(CN(C)C)OC(=O)CCC (racemic) [AL-4] | – | – | 13% | – | – | – | – | – | further increases in the fusion rate

More lines, main results first:

Row | aminolipid moved to the inner monolayer [2] | fraction of neutral species at pH 7.5 [3] | % Charged at pH 7.5 [3] | SMILES | ΔF/ΔFmax ([1]; 10 mole % AL-1 in EPC/Chol (55:45)) | ΔF/ΔFmax ([1]; 20 mole % AL-1 in EPC/Chol (55:45)) | ΔF/ΔFmax ([4]; 10 mole % AL-1 in EPC/DOPE/Chol (30:25:45), over 5 minutes after dissipation of the pH gradient) | ΔF/ΔFmax ([4]; 10 mole % AL-1 in EPC/DOPE/Chol (35:20:45), after 5 minutes) | ΔF/ΔFmax ([4]; about 5 mole % AL-1 in EPC/DOPE/Chol (35:20:45), over the first 5 minutes after dissipation of the pH gradient) | fusogenic capacity (fusion rate) [4]
4 | – | 16% | 16% | CCCCCCCC/C=C\CCCCCCCC(=O)OCC(CN(C)C)OC(C)=O (racemic) [AL-3] | – | – | – | – | – | substantially greater fusion rate
5 | – | – | 14% | CCCCCCCC/C=C\CCCCCCCC(=O)OCC(CN(C)C)OC(=O)CCCCCCCCC (racemic) [AL-5] | – | – | – | – | – | further increases in the fusion rate
6 | – | – | 17% | CCCCCCCCCC(=O)OCC(CN(C)C)OC(=O)CCCCCCCCC (racemic) [AL-6, ±-1,2-didecanoyl-1-N,N-dimethylamino propane] | – | – | – | – | – | only limited mixing
